Test results: the CheMixHub ionic liquid set

Assay: xn = mol fraction of the nth substance listed

CO/N=C(\C(=O)N[C@@H]1C(=O)N2C(C(=O)[O-])=C(CSc3nc(=O)c(=O)[n-]n3C)CS[C@H]12)c1csc(N)n1.[Na+].[Na+] + CCCCCC[n+]1ccc(C)cc1.[Br-] + O
viscosity [mPa·s], 100 kPa
Conditions	x1 = 0.0003495, x2 = 0	x1 = 0.0008732, x2 = 0	x1 = 0.001391, x2 = 0	x1 = 0.002502, x2 = 0	x1 = 0.00312, x2 = 0	x1 = 0.003888, x2 = 0	x1 = 0.004767, x2 = 0	x1 = 0.005484, x2 = 0
288.15 K	1.196	1.273	1.365	1.604	1.745	1.964	2.205	2.45
293.15 K	1.053	1.12	1.2	1.399	1.527	1.701	1.918	2.122
298.15 K	0.935	0.994	1.062	1.231	1.348	1.495	1.674	1.858
303.15 K	0.829	0.885	0.945	1.1	1.195	1.323	1.48	1.638
308.15 K	0.744	0.794	0.849	0.982	1.07	1.184	1.322	1.455

CC(O)C(=O)[O-].C[N+](C)(C)CCO + O
101 kPa
Conditions	viscosity [mPa·s]
293.15 K, x2 = 0.0272	5800
293.15 K, x2 = 0.5026	174.9
293.15 K, x2 = 0.7993	26.26
293.15 K, x2 = 0.8998	7.312
298.15 K, x2 = 0	559
298.15 K, x2 = 0.4038	187.4
298.15 K, x2 = 0.5858	87.96
298.15 K, x2 = 0.7993	20.92
303.15 K, x2 = 0.0992	308.5
308.15 K, x2 = 0.3008	144.2
308.15 K, x2 = 0.8998	4.497
313.15 K, x2 = 0.8998	3.897
318.15 K, x2 = 0.7993	9.616
323.15 K, x2 = 0.701	15.61
323.15 K, x2 = 0.7993	8.175
328.15 K, x2 = 0.7993	7.029
333.15 K, x2 = 0.2048	52.54
333.15 K, x2 = 0.3008	43.97
333.15 K, x2 = 0.701	11.18
348.15 K, x2 = 0.8998	1.767
353.15 K, x2 = 0.0992	30
353.15 K, x2 = 0.7993	3.729
353.15 K, x2 = 0.8998	1.614

O=P([O-])(O)O.[Na+] + CCCCCCCCCCCC[N+](C)(C)C.[Br-] + O
298.15 K, 101 kPa
Conditions	electrical conductivity [S/m]
x2 = 0, x1 = 0.0001802	0.1015
x2 = 0, x1 = 0.001799	0.7566
x2 = 3.79e-06, x1 = 0.0001802	0.1031
x2 = 5.64e-06, x1 = 0.001799	0.7559
x2 = 7.76e-06, x1 = 0.0001802	0.1049
x2 = 1.11e-05, x1 = 0.001799	0.7567
x2 = 1.317e-05, x1 = 0.0001802	0.1075
x2 = 1.858e-05, x1 = 0.0001802	0.1101
x2 = 1.893e-05, x1 = 0.001799	0.7581
x2 = 2.345e-05, x1 = 0.0001802	0.1124
x2 = 2.603e-05, x1 = 0.001799	0.7597
x2 = 3.427e-05, x1 = 0.0001802	0.1175
x2 = 3.55e-05, x1 = 0.001799	0.7617
x2 = 4.401e-05, x1 = 0.0001802	0.1222
x2 = 4.714e-05, x1 = 0.001799	0.7635
x2 = 5.411e-05, x1 = 0.0001802	0.127
x2 = 5.843e-05, x1 = 0.001799	0.766
x2 = 6.457e-05, x1 = 0.0001802	0.132
x2 = 6.953e-05, x1 = 0.001799	0.7685
x2 = 7.467e-05, x1 = 0.0001801	0.1368
x2 = 8.082e-05, x1 = 0.001799	0.771
x2 = 8.477e-05, x1 = 0.0001801	0.1416
x2 = 9.228e-05, x1 = 0.001799	0.7738
x2 = 9.541e-05, x1 = 0.0001801	0.1467
x2 = 0.0001034, x1 = 0.001799	0.777
x2 = 0.0001055, x1 = 0.0001801	0.1516
x2 = 0.0001145, x1 = 0.001799	0.7803
x2 = 0.0001154, x1 = 0.0001801	0.1563
x2 = 0.0001255, x1 = 0.0001801	0.161
x2 = 0.0001258, x1 = 0.001799	0.7836
x2 = 0.0001363, x1 = 0.001799	0.7867
x2 = 0.0001371, x1 = 0.0001801	0.1667
x2 = 0.0001469, x1 = 0.001798	0.7899
x2 = 0.0001488, x1 = 0.0001801	0.1723
x2 = 0.0001578, x1 = 0.001798	0.793
x2 = 0.0001602, x1 = 0.0001801	0.1777
x2 = 0.0001687, x1 = 0.001798	0.7962
x2 = 0.0001715, x1 = 0.0001801	0.1831
x2 = 0.0001796, x1 = 0.001798	0.7996
x2 = 0.0001829, x1 = 0.0001801	0.1884
x2 = 0.0001905, x1 = 0.001798	0.8028
x2 = 0.0001941, x1 = 0.0001801	0.1937
x2 = 0.0002011, x1 = 0.001798	0.8057
x2 = 0.0002054, x1 = 0.0001801	0.1991
x2 = 0.0002117, x1 = 0.001798	0.8081
x2 = 0.0002166, x1 = 0.0001801	0.2043
x2 = 0.0002224, x1 = 0.001798	0.8103
x2 = 0.0002276, x1 = 0.0001801	0.2096
x2 = 0.0002326, x1 = 0.001798	0.8125
x2 = 0.0002384, x1 = 0.0001801	0.2146
x2 = 0.0002431, x1 = 0.001798	0.8147
x2 = 0.0002492, x1 = 0.0001801	0.2196
x2 = 0.0002537, x1 = 0.001798	0.8169
x2 = 0.0002601, x1 = 0.0001801	0.2239
x2 = 0.0002641, x1 = 0.001798	0.8191
x2 = 0.0002692, x1 = 0.0001801	0.2266
x2 = 0.0002744, x1 = 0.001798	0.8212
x2 = 0.0002795, x1 = 0.0001801	0.2291
x2 = 0.0002848, x1 = 0.001798	0.8234
x2 = 0.0002918, x1 = 0.0001801	0.2316
x2 = 0.0003062, x1 = 0.0001801	0.234
x2 = 0.0003222, x1 = 0.0001801	0.2367
x2 = 0.0003394, x1 = 0.0001801	0.2394
x2 = 0.000366, x1 = 0.0001801	0.2432
x2 = 0.0003922, x1 = 0.0001801	0.2467

CC[n+]1ccccc1.[Cl-] + CC[n+]1ccccc1.[Br-]
101 kPa
Conditions	viscosity [mPa·s]
418.1 K, x1 = 0.196	9.57
418.1 K, x1 = 0.613	9.2
423.1 K, x1 = 0.196	8.73
423.1 K, x1 = 0.303	8.64
423.1 K, x1 = 0.613	8.37
423.1 K, x1 = 0.885	8.17
428.1 K, x1 = 0.303	7.88
428.1 K, x1 = 0.688	7.61
433.1 K, x1 = 0.503	7.14
438.1 K, x1 = 0.613	6.53

CC[n+]1ccn(C)c1.F[B-](F)(F)F + CC1COC(=O)O1
298 K, 101 kPa
Conditions	electrical conductivity [S/m]
x2 = 0.16	1.5
x2 = 0.83	1.68
x2 = 0.89	1.46

CO + CCCC[n+]1ccn(C)c1.[Cl-]
Conditions	viscosity [mPa·s]
308.15 K, 101 kPa, x1 = 1	0.49
